Source: patent US20140194477A1, “KINASE PROTEIN BINDING INHIBITORS” (Roswell Park Cancer Institute, priority 2011, published 2014)

Test system: CD-1 mice
Assay: 28-day multiple-dose toxicologic study, IP, CD-1 mice
Type: in vivo, mouse
Procedure: A 28-day, multiple-dose toxicologic study of the chemical 1,2,4,5-Benzenetetramine tetrahydrochloride was performed in CD-1 mice.
• 1,2,4,5-benzenetetramine tetrahydrochloride. The test article was prepared in PBS (physiologic buffered saline). The test article was prepared by the sponsor and delivered to the study director prior to the study. The test article was stored in the freezer (0° C.), protected from light.
• PBS (physiologic buffered saline), • Test System: • The CD-1 [Hsd:ICR(CD-l)] albino mouse was used. The CD-1 mouse is conventionally used in 28 day toxicity tests to provide information on which human hazards can be judged, and is one of the choices of species preferred by regulatory agencies. Mice were obtained from Harlan (Frederick, MD). • Mice were acclimated for 2 days prior to testing. 12 male and 12 female mice, nulliparous and non-pregnant, were used. Normal weight gain, appearance and behavior were factors used to select healthy mice for testing. Only naive animals were used. Mice were 7 weeks old (males) and 9 weeks old (females), weighed 21-26 grams (males) and 17-23 grams (females), and were in good health at the start of the study. Mice were 11 weeks old (males) and 13 weeks old (females), weighed 20-32 grams (males) and 19-26 grams (females) at the conclusion of the study. • Mice were randomly assigned to 4 experimental groups (high-dose, medium-dose, low-dose, and controls) consisting of 3 males and 3 females. Mice were identified via cage cards, tail markings, and ear punch. Mouse identification is summarized in Table 1. • Mice were fed autoclaved Harlan-Teklad sterilizable 7012 mouse/rat diet ad libitum. The feed is routinely analyzed by the manufacturer for nutritional components and environmental contaminants. Tap water acidified to a pH of 2.5-3.5 was provided in autoclaved water bottles ad libitum. Municipal water supply is analyzed by the Bureau Veritas Consumer Product Services of Buffalo, N.Y. on an annual basis. There are no known contaminants in the feed or water provided to the test animals that would be expected to interfere with this study. • Mice were group-housed, 3 to a cage, in autoclaved polycarbonate/polysulfone microisolator cages with autoclaved contact bedding (bed ′o cobs, Anderson's Industrial Products Group). • Environmental conditions in the animal housing room were maintained at an ambient temperature of 70±3°, relative humidity of 30-70%, and a 12:12 light-dark cycle. Animal housing rooms were ventilated with 100% fresh, HEPA filtered air with 10-15 air changes per hour.
• A 28-day multiple-dose toxicology study was performed.
The test article (1,2,4,5-benzenetetramine tetrahydrochloride) was prepared in PBS (the control article) and administered intraperiotoneally (IP) as 20 doses once daily on days 0-4, 7-11, 14-18, and 21-25 in the morning. The compound was diluted so as not to exceed a volume of 0.1 mL.
The test article (1,2,4,5-benzenetetramine tetrahydrochloride) was stored in the freezer (0° C.) and thawed to room temperature prior to injection. Mice were randomly allocated into 4 groups (control, low-dose, medium-dose, and high-dose) consisting of 3 males and 3 females, Dosages were calculated on a “per mouse” basis, not on a mg/kg basis. Mice in the low-dose group received the equivalent of a 15 mg/kg dose for a 20 g mouse (0.3 mg). Mice in the medium-dose group received the equivalent of a 30 mg/kg dose for a 20 g mouse (0.6 mg). Mice in the high-dose group received the equivalent of a 45 mg/kg dose for a 20 g mouse (0.9 mg). Mice in the control group received 0.1 mL of PBS (phosphate-buffered saline). Groups received the following doses, as outlined in table 1: […]

[1] = IP, 28-day study, high-dose group

Cl.Cl.Cl.Cl.Nc1cc(N)c(N)cc1N [Y15, 1,2,4,5-benzenetetraamine tetrahydrochloride]
toxicity (summary statement) (30 mg/kg by ip administration, duration 28 days): no toxicity
pain following injection (IP, 20 daily doses over 28 days, 15, 30, 45 mg/kg equivalent): pain following injection in all dose groups
clinical chemistry changes (IP, 28-day study): not associated with any changes in clinical chemistry that were statistically and clinically significant
gross and histopathologic findings (IP, 28-day study, all dose groups): gross and histopathologic peritonitis in mice in all dose groups
mean body weights (IP, 28-day study, high dose group (45 mg/kg equivalent)): statistically significant lowered mean body weights
hematologic changes [1]: Some statistically and clinically significant hematologic changes
mortality [1]: unexpected mortality in the high-dose group
clinical signs (IP, 28-day study, medium (30 mg/kg) and high (45 mg/kg) dose groups): clinical signs consistent with general malaise and peritonitis
weight loss (IP, 28-day study, medium- and high-dose groups): weight loss in the medium- and high-dose groups
